Data on three compounds can be found in US6593144B2, “Magnetic resonance imaging using hyperpolarized noble gases” (The Trustees of Princeton University, priority 1994, dated 2003).

For data set [1] the following is noted: cited from earlier work.
The conditions of data set [2]: 30° C., 0.5 atm, cited from earlier work.
The conditions of data set [3]: inhaled, mouse; cited from earlier work.
For data set [4] the following is noted: inhaled, humans; cited from earlier work.
The conditions of data set [5]: brain, cited from earlier work.
For data set [6] the following is noted: cited from earlier work. This is another data set of the same source.
Data set [7] can be described thus: Relaxivity of O2 toward 129Xe and T1 estimates derived from it. The settings on record: for T1: absence of other relaxers. The format is physicochemical. An excerpt:
It is known that ^129Xe, which has a long longitudinal relaxation time in the gas phase, can be relaxed by magnetic dipole-dipole interaction and/or Fermi-Contact interaction with the unpaired electron spins of dioxygen. (Reference 18). The solubility of Xenon (and also of dioxygen) in water is low. Due to the low sensitivity of the ^129Xe signal, the time required for determining the relaxivity of O2 toward ^129Xe with a series of T1 determinations over a range of O2 concentrations in water would be prohibitively long.
The relaxivity of O2 toward ^129Xe has been measured in only one liquid, i.e., octanol, which models an amphipathic membrane lipid. (Reference 17). The observed relaxivity, 0.029 s^−1mM^−1, is about three times larger than that estimated from previous reports for gas-phase relaxation, i.e., (Reference 18), 0.0087 s^−1mM^−1, as might be expected for encounters in the condensed phase. The dioxygen relaxivity for ^129Xe is constant over the concentration range studied, and thus 1/T1 will be a linear function of O2 concentration over the entire physiological range (0-0.2 atm, 0-0.2 mM). This translates into a T1 value of 18 s in air-saturated lipid, and 80 s in anaerobic lipid, in the absence of other relaxers. This is the first reported value for the O2 relaxivity toward ^129Xe in a condensed phase. T2values over these O2 concentrations have been determined to range from 0.5 to 5.0 s. […] In fact, given the relative inefficiency of the known non-paramagnetic relaxation mechanisms, it is suspected that T1 in many tissues will not fall below seconds or even tens of seconds.
This estimate of T1≈38 s for ^129Xe dissolved in rat blood at 293° K is very encouraging. […] One can also estimate T1 values for other model systems. The T1 of ^129Xe in water has been measured at 300° K to be 130 s. […] While the actual values of T1 in each tissue must be, and remain to be, determined, it is expected that the minimum value will fall above 15 s, a duration sufficient to enable significant accumulation of polarized ^129Xe in major tissues. […]

For data set [8] the following is noted: cited from earlier work. The source holds these as a separate data set.
The conditions of data set [9]: dissolved in rat blood, 293° K, data obtained over 12 hr; cited from earlier work.
[10] abbreviates: myoglobin (aqueous Fe(III) metmyoglobin).

The structures appear in SMILES notation. Where “and” joins values, the source holds several entries; their conditions need not be identical. Identical values can stand only once. Like-named read-outs stand apart in the source and are kept apart here.

Turning to `O=O` [O2, dioxygen], the “relaxivity of O2 toward 129Xe” value in [1] (gas phase, estimated from previous reports) is 0.0087 s⁻¹ mM⁻¹; in data set [1] (octanol, 300° K), 0.029 s⁻¹ mM⁻¹.
On to `[Xe]` [Xenon], for which the “solubility of Xenon in octanol” value in data set [2] (octanol) is listed as 48 mM. Also, in [2] (water), the “solubility of Xenon in water” value is 2.4 mM. The “time to reach a steady state with the entire blood volume (one blood circuit)” value in data set [3] is on record as “about 1 s”. Moreover, in data set [4], the “time to reach a steady state with the entire blood volume (one blood circuit)” value is on record as “about 18 s”. Also, in data set [5] (0.5-1.0 atm lung Xenon), the “steady-state concentration bound to proteins” value was 1 to 5 mM, the “steady-state concentration in the membrane bilayers” value was 5 to 10 mM and the “steady-state concentration in water” value was 2 to 4 mM. Moreover, the “solubility in white matter versus gray matter” value in data set [5] is given as “approximately twice as soluble in white matter as in gray matter”. For the same compound, the metabolism entry in data set [6] (by the body) was “not metabolized by the body”. In addition, the “period of recovery from the exhaled breath” value in data set [6] (human subjects) is approximately 20 min.
In the case of `[129Xe]` [^129Xe, Xenon-129], the T1 in data set [7] (air-saturated lipid) is 18 s; in [7] (anaerobic lipid), 80 s; in [8] (10% Fe(III) metMb), 0.005 s; in data set [8] (benzene, 9.4 T and 300° K, Diehl and Jokisaari), 155.0 ± 6.2 s; in [8] (benzene, 300° K), 160 s and 160.5 s; in data set [8] (benzene, Moschos and Reisse), 240 s. The T1 in data set [8] (setting [10]) was 0.0052 s; in [8] (octanol), 80 s and 78.5 s; in data set [8] (pure gas phase, practically), “at least 3000 s”; in [8] (water), 130 s and 131.3 s; in [9], 38 s and ≈ 38 s. Also, the “estimated T1” value in [7] (fully oxygenated membranes) was more than 15 s. Besides, the T2 was 0.88 s in [8] (benzene); 0.00057 s in data set [8] (setting [10]); 5.3 s in data set [8] (octanol); “≦56 hrs” in [8] (pure gas phase, 1 atm); 5.3 s in [8] (water); 0.5 to 5.0 s in [1] (octanol, over O2 concentrations 0-0.2 atm).
